Molecules are shown by their SMILES.

T1 sequence (Q13191 39-426): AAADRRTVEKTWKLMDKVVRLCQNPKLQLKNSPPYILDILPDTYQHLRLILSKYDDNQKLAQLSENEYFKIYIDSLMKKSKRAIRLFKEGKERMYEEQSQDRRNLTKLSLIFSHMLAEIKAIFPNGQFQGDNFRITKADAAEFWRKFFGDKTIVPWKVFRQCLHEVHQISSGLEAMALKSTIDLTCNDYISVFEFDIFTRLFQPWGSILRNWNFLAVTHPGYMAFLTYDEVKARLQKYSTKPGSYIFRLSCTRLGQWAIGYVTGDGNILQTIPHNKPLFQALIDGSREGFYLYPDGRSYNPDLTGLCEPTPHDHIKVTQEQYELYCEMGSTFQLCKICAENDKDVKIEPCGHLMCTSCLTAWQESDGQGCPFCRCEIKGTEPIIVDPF

The experiment addresses T1, human recombinant CBL-b (human Biotin CBL-b recombinant protein a.a. 39-426) (Homo sapiens, UniProt Q13191).
T1 construct: human Biotin CBL-b recombinant protein a.a; 39-426; Biotin (biotinylated); made in house
Nature of the experiment: Biochemical assay for CBL-b inhibition (ligand displacement TR-FRET). The format is binding. The note with it: 50 nM CBL-b, 0.3 μM Bodipy FL-Probe, read-out: IC50 (CBL-b inhibition, group). As for the experimental part: The inhibitory activity of the test compounds was assessed by Ligand displacement TR-FRET assay. The human recombinant CBL-b (human Biotin CBL-b recombinant protein a.a. 39-426; synthesised in-house) was diluted in enzyme assay buffer (20 mM HEPES, 150 mM NaCl, 0.01% Triton X, 0.01% BSA, 0.5 mM TCEP) in a 10 μl volume and plated in 384-well plates (Cat #781075, Greiner) to a final concentration of 50 nM. The enzyme/compound mixture was incubated at RT for 60 min. The Bodipy FL-Probe described in WO 2020/210508 (synthesized in-house) diluted in enzyme assay buffer was added to the plate and incubated for 60 min RT, the final probe concentration was 0.3 μM. After 60 min incubation, 10 μl of detection mix (Terbium Streptavidin, (Cat #PV3576, Invitrogen) diluted in 1× Lance buffer) was added and incubated for 60 min at room temperature. Time-resolved fluorescence (excitation, 320 nm; emission donor, 615 nm; emission acceptor, 665 nm) was monitored by using 2030 multilabel reader Victor5 (PerkinElmer). The IC50 (concentration for half maximal inhibition) and % maximum inhibition of the compounds were estimated by fitting the dose response data to a sigmoidal curve fitting equation using Graph pad Prism software V. 8.
A general note: In TR-FRET formats the signal depends on donor and acceptor labels being close together.
A word on the IC50: it is the concentration that gives 50% inhibition. In the case of `Cn1cnnc1CC1(c2ccc3c(c2)C(=O)N(c2cc(CNCC4(F)CC4)cc(Cl)n2)C3)COC1` [Compound 130, 2-(6-Chloro-4-((((1-fluorocyclopropyl)methyl)amino)methyl)-pyridin-2-yl)-6-(3-((4-methyl-4H-1,2,4-triazol-3-yl)methyl)oxetan-3-yl)isoindolin-1-one], the IC50 was 0.08 to 0.3 µM.
Take `Cn1cnnc1C[C@]1(c2ccc3c(c2)C(=O)N(c2cc(CNCC4CCC4)cc(Cl)n2)C3)C[C@@H](C#N)C1` (single isomer, unassigned) [Compound 245]: the IC50 lay within 0.08 to 0.3 µM.
On to `Cn1cnnc1CC1(c2ccc3c(c2)C(=O)N(c2cc(CNCC4(C(F)(F)F)CC4)cc(Cl)n2)C3)COC1` [Compound 204], for which the IC50 fell in the range of 0.08 to 0.3 µM.
With `Cn1cc2c(n1)CCCN2Cc1cc(N2Cc3ccc(C4(Cc5nncn5C)COC4)cc3C2=O)nc(C(F)(F)F)c1` [Compound 128, 2-(4-((2-Methyl-2,5,6,7-tetrahydro-4H-pyrazolo[4,3-b]pyridin-4-yl)methyl)-6-(trifluoromethyl)pyridin-2-yl)-6-(3-((4-methyl-4H-1,2,4-triazol-3-yl)methyl)oxetan-3-yl)isoindolin-1-one], the IC50 was 0.3 to 5 µM.
Consider `Cn1cnnc1CC1(c2ccc3c(c2)C(=O)N(c2cc(CNCc4ncco4)cc(Cl)n2)C3)COC1` [Compound 208], for which the IC50 lay in the range of 0.3 to 5 µM.
As for `C[C@@H](NCc1ccccn1)c1cc(Cl)nc(N2Cc3ccc(C4(Cc5nncn5C)COC4)cc3C2=O)c1` (single isomer, unassigned) [Compound 241], the half-inhibitory concentration (IC50) was in the range of 0.3 to 5 µM.
On to `Cn1cnnc1CC1(c2ccc3c(c2)C(=O)N(c2cc(CNC4CCCC4O)cc(Cl)n2)C3)COC1` (single isomer, unassigned) [Compound 209, 2-(6-Chloro-4-(((2-hydroxycyclopentyl)amino)methyl)pyridin-2-yl)-6-(3-((4-methyl-4H-1,2,4-triazol-3-yl)methyl)oxetan-3-yl)isoindolin-1-one], for which the IC50 was under 0.08 µM.
`Cc1cc(CN(C)CC2CC2)cc(N2Cc3ccc(-c4ccc(F)cc4-c4nncn4C)cc3C2=O)n1` [Compound 312]: the IC50 was under 0.08 µM.
As for `Cc1nc(CNCC2CC2)cc(N2Cc3ccc(C4(Cc5nncn5C)COC4)cc3C2=O)n1` [Compound 186], the figure is 0.08 to 0.3 µM.
Regarding `Cc1cc(CNCC2CC2)cc(N2Cc3ccc(-c4ccc(Cl)cc4-c4cc[nH]n4)cc3C2=O)n1` [Compound 271], the IC50 is 0.08 to 0.3 µM.
In the case of `CC1CCC(C)N(Cc2cc(N3Cc4ccc(C5(Cc6nncn6C)COC5)cc4C3=O)nc(C(F)(F)F)c2)C1` (single isomer, unassigned) [Compound 139], the IC50 lay in the range of 0.3 to 5 µM.
Take `CN1CC2CC1CN2Cc1cc(N2Cc3ccc(C4(Cc5nncn5C)COC4)cc3C2=O)nc(C(F)(F)F)c1` (stereo not shown) [Compound 81, 2-(4-((5-Methyl-2,5-diazabicyclo[2.2.1]heptan-2-yl)methyl)-6-(trifluoromethyl)-pyridin-2-yl)-6-(3-((4-methyl-4H-1,2,4-triazol-3-yl)methyl)oxetan-3-yl)isoindolin-1-one]: the IC50 lay in the range of 0.3 to 5 µM.
The same measure for `CC1CCC(C)N(Cc2cc(N3Cc4ccc(C5(Cc6nncn6C)COC5)cc4C3=O)nc(C(F)(F)F)c2)C1` (single isomer, unassigned) [Compound 142]: 0.3 to 5 µM.
Regarding `Cc1cc(C(C)c2nccn2C)cc(N2Cc3ccc(-c4ccc(F)cc4-c4nncn4C)cc3C2=O)n1` (stereo not shown) [Compound 334, 6-(4-Fluoro-2-(4-methyl-4H-1,2,4-triazol-3-yl)phenyl)-2-(6-methyl-4-(1-(1-methyl-1H-imidazol-2-yl)ethyl)pyridin-2-yl)isoindolin-1-one], the IC50 was in the range of 0.3 to 5 µM.
In the case of `C[C@@H]1CN(Cc2cc(N3Cc4ccc(C5(Cc6nncn6C)COC5)cc4C3=O)nc(C(F)(F)F)c2)C[C@H](C)N1` [Compound 98, 2-(4-(((3R,5S)-3,5-Dimethylpiperazin-1-yl)methyl)-6-(trifluoro-methyl)pyridin-2-yl)-6-(3-((4-methyl-4H-1,2,4-triazol-3-yl)methyl)oxetan-3-yl)-isoindolin-1-one], the IC50 fell in the range of 0.3 to 5 µM.
For the compound `Cc1cccc(CNCc2cc(Cl)nc(N3Cc4ccc(C5(Cc6nncn6C)COC5)cc4C3=O)c2)n1` [Compound 229], the IC50 is 0.3 to 5 µM.
For the compound `Cc1cc(CNCC2CC2)cc(N2Cc3ccc(-c4cccnc4-c4nncn4C)cc3C2=O)n1` [Compound 266], the IC50 is 0.3 to 5 µM.
The same measure for `Cc1cncn1Cc1cc(N2Cc3ccc(C4(Cc5nncn5C)COC4)cc3C2=O)nc(C(F)(F)F)c1` [Compound 69, 2-(4-((5-Methyl-1H-imidazol-1-yl)methyl)-6-(trifluoromethyl)pyridin-2-yl)-6-(3-((4-methyl-4H-1,2,4-triazol-3-yl)methyl)oxetan-3-yl)isoindolin-1-one]: 0.3 to 5 µM.
With `CC1CCC(CNCc2cc(Cl)nc(N3Cc4ccc(C5(Cc6nncn6C)COC5)cc4C3=O)c2)O1` (stereo not shown) [Compound 250], the concentration for half-maximal inhibition (IC50) lay within 0.08 to 0.3 µM.
`Cc1cc(CNCC2CC2)cc(N2Cc3ccc(-c4ccc(F)cc4-c4nocc4C)cc3C2=O)n1` [Compound 289, 2-(4-(((Cyclopropylmethyl)amino)methyl)-6-methylpyridin-2-yl)-6-(4-fluoro-2-(4-methylisoxazol-3-yl)phenyl)isoindolin-1-one]: the IC50 was under 0.08 µM.
The same measure for `Cn1cnnc1CC1(c2ccc3c(c2)C(=O)N(c2cc(CNCC4COC4)cc(Cl)n2)C3)COC1` [Compound 183]: 0.08 to 0.3 µM.
On to `Cc1cn(Cc2cc(N3Cc4ccc(C5(Cc6nncn6C)COC5)cc4C3=O)nc(C(F)(F)F)c2)cn1` [Compound 70, 2-(4-((4-Methyl-1H-imidazol-1-yl)methyl)-6-(trifluoromethyl)pyridin-2-yl)-6-(3-((4-methyl-4H-1,2,4-triazol-3-yl)methyl)oxetan-3-yl)isoindolin-1-one], for which the IC50 lay within 0.3 to 5 µM.
On to `Cc1cc(CN2CCC[C@H]2CO)cc(N2Cc3ccc(-c4ccc(F)cc4-c4nncn4C)cc3C2=O)n1` [Compound 288], for which the IC50 lay within 0.3 to 5 µM.
As for `Cc1cc(NCC2CCCN2)cc(N2Cc3ccc(C4(Cc5nncn5C)COC4)cc3C2=O)n1` (stereo not shown) [Compound 336, 2-(6-Methyl-4-((pyrrolidin-2-ylmethyl)amino)pyridin-2-yl)-6-(3-((4-methyl-4H-1,2,4-triazol-3-yl)methyl)oxetan-3-yl)isoindolin-1-one], the figure is 0.3 to 5 µM.
Consider `Cc1cc(CN2CCC[C@@H]2CO)cc(N2Cc3ccc(-c4ccc(F)cc4-c4nncn4C)cc3C2=O)n1` [Compound 286], for which the IC50 is 0.08 to 0.3 µM.
For `Cc1cc(CNCC2CCCCN2)cc(N2Cc3ccc(-c4ccc(F)cc4-c4nncn4C)cc3C2=O)n1` (stereo not shown) [Compound 339, 6-(4-Fluoro-2-(4-methyl-4H-1,2,4-triazol-3-yl)phenyl)-2-(6-methyl-4-(((piperidin-2-ylmethyl)amino)methyl)pyridin-2-yl)isoindolin-1-one], the IC50 fell in the range of 0.3 to 5 µM.
`Cc1cc(CNC(CC(C)(C)O)C2CC2)cc(N2Cc3ccc(-c4ccc(F)cc4-c4nncn4C)cc3C2=O)n1` (stereo not shown) [Compound 338, 2-(4-(((1-Cyclopropyl-3-hydroxy-3-methylbutyl)amino)methyl)-6-methylpyridin-2-yl)-6-(4-fluoro-2-(4-methyl-4H-1,2,4-triazol-3-yl)phenyl)isoindolin-1-one]: the half-maximal inhibitory concentration (IC50) is 0.08 to 0.3 µM.
With `Cn1cnnc1CC1(c2ccc3c(c2)C(=O)N(c2cc(CNCC4(C#N)CCC4)cc(Cl)n2)C3)COC1` [Compound 243], the IC50 was in the range of 0.08 to 0.3 µM.
As for `CCCC(Cc1nncn1C)c1ccc2c(c1)C(=O)N(c1cc(CNCC3CC3)cc(Cl)n1)C2` (stereo not shown) [Compound 252], the figure is 0.08 to 0.3 µM; as for `CC1CCC(C)N(Cc2cc(N3Cc4ccc(C5(Cc6nncn6C)COC5)cc4C3=O)nc(C(F)(F)F)c2)C1` (single isomer, unassigned) [Compound 140], 0.3 to 5 µM.
As for `Cc1cc(CN[C@H](CO)C(C)C)cc(N2Cc3ccc(-c4ccc(F)cc4-c4nncn4C)cc3C2=O)n1` [Compound 297], the IC50 lay in the range of 0.08 to 0.3 µM.
With `C[C@H]1CCCN(Cc2cc(Cl)nc(N3Cc4ccc([C@@H](Cc5nncn5C)C(F)(F)F)cc4C3=O)c2)C1` (single isomer, unassigned) [Compound 180], the 50% inhibitory concentration (IC50) lay within 0.08 to 0.3 µM.
The same measure for `CC1CCCN1Cc1cc(Cl)nc(N2Cc3ccc(C4(Cc5nncn5C)COC4)cc3C2=O)c1` (stereo not shown) [Compound 200]: 0.3 to 5 µM.
With `C[C@H]1CCCN(Cc2cc(Cl)nc(N3Cc4ccc(-c5c(-c6nncn6C)cnn5C)cc4C3=O)c2)C1` [Compound 114, (S)-2-(6-Chloro-4-((3-methylpiperidin-1-yl)methyl)pyridin-2-yl)-6-(1-methyl-4-(4-methyl-4H-1,2,4-triazol-3-yl)-1H-pyrazol-5-yl)isoindolin-1-one], the IC50 is 0.3 to 5 µM.
The same measure for `Cc1cc(N2Cc3ccc(C4(Cc5nncn5C)COC4)cc3C2=O)cc2c1cnn2CCN(C)C` [Compound 76, 2-(1-(2-(Dimethylamino)ethyl)-4-methyl-1H-indazol-6-yl)-6-(3-((4-methyl-4H-1,2,4-triazol-3-yl)methyl)oxetan-3-yl)isoindolin-1-one]: 0.3 to 5 µM; for `Cc1cc(CN[C@H](CO)CC(C)C)cc(N2Cc3ccc(-c4ccc(F)cc4-c4nncn4C)cc3C2=O)n1` [Compound 322]: 0.08 to 0.3 µM; for `Cc1cc(CNCC2(CO)CC2)cc(N2Cc3ccc(-c4ccc(F)cc4-c4nncn4C)cc3C2=O)n1` [Compound 316]: 0.08 to 0.3 µM.

For the origin of these results see patent publication US20260226073A1 (AURIGENE ONCOLOGY LIMITED, priority 2023, published 2026).
